The record followed here is ChEMBL document CHEMBL1275510, “Ceftibuten resistance and treatment failure of Neisseria gonorrhoeae infection” (Antimicrob Agents Chemother, 2008).

≈ marks a conversion by molar mass, not a printed value. Some results are limits rather than exact numbers.

For orientation: MIC means the least concentration at which growth counts as inhibited. The Cmax is the maximum level reached in the sampled fluid or tissue. As a reminder, the half-life is the time in which the quantity being followed falls by half. For orientation: bioavailability means dose-corrected exposure relative to a reference, in per cent. Lower therefore signals little systemic uptake.

Series [1] concerns Neisseria gonorrhoeae. The series is described as follows: Antimicrobial activity against penicillin-,ofloxacin- and tetracyclin-resistant Neisseria gonorrhoeae multiantigen sequence type 835 isolate 2 harboring penA gene by Etest. In kind it is functional.
Series [2] relates to Neisseria gonorrhoeae. As to the kind of experiment: Antimicrobial activity against penicillin-,ofloxacin- and tetracyclin-resistant Neisseria gonorrhoeae multiantigen sequence type 2469 isolate 11 harboring penA gene by Etest. It is filed as functional.
The test system of series [3] is Neisseria gonorrhoeae. The series is described as follows: Antimicrobial activity against penicillin-,ofloxacin- and tetracyclin-resistant Neisseria gonorrhoeae multiantigen sequence type 835 isolate 1 harboring penA gene by Etest. It is filed as functional.
Series [4] concerns Neisseria gonorrhoeae. The series is described as follows: Antimicrobial activity against penicillin-,ofloxacin- and tetracyclin-resistant Neisseria gonorrhoeae multiantigen sequence type 835 isolate 3 harboring penA gene by Etest. In kind it is functional.
The test system of series [5] is Neisseria gonorrhoeae. As to the kind of experiment: Antimicrobial activity against penicillin-,ofloxacin- and tetracyclin-resistant Neisseria gonorrhoeae multiantigen sequence type 835 isolate 9 harboring penA gene by Etest. It is filed as functional.
The test system of series [6] is Neisseria gonorrhoeae. As to the kind of experiment: Antimicrobial activity against penicillin-,ofloxacin- and tetracyclin-resistant Neisseria gonorrhoeae multiantigen sequence type 835 isolate 8 harboring penA gene by Etest. It is filed as functional.
Series [7] has as its system Neisseria gonorrhoeae. As to the kind of experiment: Antimicrobial activity against penicillin-,ofloxacin- and tetracyclin-resistant Neisseria gonorrhoeae multiantigen sequence type 835 isolate 7 harboring penA gene by Etest. In kind it is functional.
The subject of series [8] is Neisseria gonorrhoeae. The series is described as follows: Antimicrobial activity against penicillin-,ofloxacin- and tetracyclin-resistant Neisseria gonorrhoeae multiantigen sequence type 835 isolate 10 harboring penA gene by Etest. In kind it is functional.
Series [9] relates to Neisseria gonorrhoeae. As to the kind of experiment: Antimicrobial activity against penicillin-,ofloxacin- and tetracyclin-resistant Neisseria gonorrhoeae multiantigen sequence type 835 isolate 4 harboring penA gene by Etest. It is filed as functional.
In series [10] the test system is Neisseria gonorrhoeae. As to the kind of experiment: Antimicrobial activity against penicillin-,ofloxacin- and tetracyclin-resistant Neisseria gonorrhoeae multiantigen sequence type 835 isolate 5 harboring penA gene by Etest. In kind it is functional.
Series [11] concerns Neisseria gonorrhoeae. The series is described as follows: Antimicrobial activity against penicillin-,ofloxacin- and tetracyclin-resistant Neisseria gonorrhoeae multiantigen sequence type 835 isolate 6 harboring penA gene by Etest. It is filed as functional.
In series [12] the test system is Neisseria gonorrhoeae. The series is described as follows: Antimicrobial activity against penicillin-,ofloxacin- and tetracyclin-resistant Neisseria gonorrhoeae multiantigen sequence type 835 isolate 8 harboring penA gene by disk diffusion method. It is filed as functional. For orientation: In agar diffusion tests the substance spreads into inoculated agar from a disc or well.

Series [13] concerns Neisseria gonorrhoeae. The series is described as follows: Antimicrobial activity against penicillin-,ofloxacin- and tetracyclin-resistant Neisseria gonorrhoeae multiantigen sequence type 835 isolate 4 harboring penA gene by disk diffusion method. In kind it is functional.
Series [14] deals with Neisseria gonorrhoeae. As to the kind of experiment: Antimicrobial activity against penicillin-,ofloxacin- and tetracyclin-resistant Neisseria gonorrhoeae multiantigen sequence type 835 isolate 5 harboring penA gene by disk diffusion method. In kind it is functional.
Series [15] is described as follows: Cmax in Neisseria gonorrhoeae infected patient at 400 mg, po. In kind it is ADME, organism-based. More on the design: dose 400 mg, route oral. The settings on record: human, in vivo.
Series [16] relates to Neisseria gonorrhoeae. As to the kind of experiment: Antimicrobial activity against penicillin-,ofloxacin- and tetracyclin-resistant Neisseria gonorrhoeae multiantigen sequence type 835 isolate 8 harboring penA gene by agar dilution method. In kind it is functional.
In series [17] the test system is Neisseria gonorrhoeae. As to the kind of experiment: Antimicrobial activity against penicillin-,ofloxacin- and tetracyclin-resistant Neisseria gonorrhoeae multiantigen sequence type 835 isolate 3 harboring penA gene by agar dilution method. In kind it is functional.
In series [18] the test system is Neisseria gonorrhoeae. As to the kind of experiment: Antimicrobial activity against penicillin-,ofloxacin- and tetracyclin-resistant Neisseria gonorrhoeae multiantigen sequence type 835 isolate 6 harboring penA gene by disk diffusion method. It is filed as functional.
For series [19], the system named is Neisseria gonorrhoeae. As to the kind of experiment: Antimicrobial activity against penicillin-,ofloxacin- and tetracyclin-resistant Neisseria gonorrhoeae multiantigen sequence type 835 isolate 4 harboring penA gene by agar dilution method. In kind it is functional.
Series [20] deals with Neisseria gonorrhoeae. The series is described as follows: Antimicrobial activity against penicillin-,ofloxacin- and tetracyclin-resistant Neisseria gonorrhoeae multiantigen sequence type 835 isolate 9 harboring penA gene by agar dilution method. It is filed as functional. (In general: In agar dilution the substance is mixed into plates at graded concentrations.)
The nature of series [21]: Half life in Neisseria gonorrhoeae infected patient at 400 mg, po. In kind it is ADME, organism-based. The settings on record: human, in vivo.
Series [22] has as its system Neisseria gonorrhoeae. As to the kind of experiment: Antimicrobial activity against penicillin-,ofloxacin- and tetracyclin-resistant Neisseria gonorrhoeae multiantigen sequence type 835 isolate 9 harboring penA gene by disk diffusion method. It is filed as functional.
For series [23], the system named is Neisseria gonorrhoeae. The series is described as follows: Antimicrobial activity against penicillin-,ofloxacin- and tetracyclin-resistant Neisseria gonorrhoeae multiantigen sequence type 835 isolate 1 harboring penA gene by disk diffusion method. In kind it is functional.
For series [24], the system named is Neisseria gonorrhoeae. The series is described as follows: Antimicrobial activity against penicillin-,ofloxacin- and tetracyclin-resistant Neisseria gonorrhoeae multiantigen sequence type 2469 isolate 11 harboring penA gene by agar dilution method. In kind it is functional.
Series [25] relates to Neisseria gonorrhoeae. The series is described as follows: Antimicrobial activity against penicillin-,ofloxacin- and tetracyclin-resistant Neisseria gonorrhoeae multiantigen sequence type 835 isolate 1 harboring penA gene by agar dilution method. In kind it is functional.
Series [26] relates to Neisseria gonorrhoeae. The series is described as follows: Antimicrobial activity against penicillin-,ofloxacin- and tetracyclin resistant Neisseria gonorrhoeae by […]. In kind it is functional.
The test system of series [27] is Neisseria gonorrhoeae. As to the kind of experiment: Antimicrobial activity against penicillin-,ofloxacin- and tetracyclin-resistant Neisseria gonorrhoeae multiantigen sequence type 2469 isolate 11 harboring penA gene by disk diffusion method. It is filed as functional.
Series [28] has as its system Neisseria gonorrhoeae. The series is described as follows: Antimicrobial activity against penicillin-,ofloxacin- and tetracyclin-resistant Neisseria gonorrhoeae multiantigen sequence type 835 isolate 7 harboring penA gene by disk diffusion method. It is filed as functional.
Series [29] relates to Neisseria gonorrhoeae. As to the kind of experiment: Antimicrobial activity against penicillin-,ofloxacin- and tetracyclin resistant penA-negative Neisseria gonorrhoeae by […]. In kind it is functional.
In series [30] the test system is Neisseria gonorrhoeae. The series is described as follows: Antimicrobial activity against penicillin-,ofloxacin- and tetracyclin-resistant Neisseria gonorrhoeae multiantigen sequence type 835 isolate 6 harboring penA gene by agar dilution method. It is filed as functional.
Another series deals with Serum. As to the kind of experiment: Protein binding in Neisseria gonorrhoeae infected patient serum at 400 mg, po. The conditions noted are these: human, in vivo. In kind it is ADME, organism-based.
Series [31] relates to Neisseria gonorrhoeae. The series is described as follows: Antimicrobial activity against penicillin-,ofloxacin- and tetracyclin-resistant Neisseria gonorrhoeae multiantigen sequence type 835 isolate 10 harboring penA gene by disk diffusion method. In kind it is functional.
In series [32] the test system is Neisseria gonorrhoeae. As to the kind of experiment: Antimicrobial activity against penicillin-,ofloxacin- and tetracyclin-resistant Neisseria gonorrhoeae multiantigen sequence type 835 isolate 2 harboring penA gene by agar dilution method. It is filed as functional.
The subject of series [33] is Neisseria gonorrhoeae. As to the kind of experiment: Antimicrobial activity against penicillin-,ofloxacin- and tetracyclin-resistant Neisseria gonorrhoeae multiantigen sequence type 835 isolate 2 harboring penA gene by disk diffusion method. It is filed as functional.
The test system of series [34] is Neisseria gonorrhoeae. The series is described as follows: Antimicrobial activity against penicillin-,ofloxacin- and tetracyclin-resistant Neisseria gonorrhoeae multiantigen sequence type 835 isolate 5 harboring penA gene by agar dilution method. In kind it is functional.
Series [35] can be described thus: Oral bioavailability in Neisseria gonorrhoeae infected patient at 400 mg, po. In kind it is ADME, organism-based. The conditions noted are these: human, in vivo.
For series [36], the system named is Neisseria gonorrhoeae. The series is described as follows: Antimicrobial activity against penicillin-,ofloxacin- and tetracyclin-resistant Neisseria gonorrhoeae multiantigen sequence type 835 isolate 10 harboring penA gene by agar dilution method. In kind it is functional.
Series [37] concerns Neisseria gonorrhoeae. As to the kind of experiment: Antimicrobial activity against penicillin-,ofloxacin- and tetracyclin-resistant Neisseria gonorrhoeae multiantigen sequence type 835 isolate 3 harboring penA gene by disk diffusion method. It is filed as functional.
Series [38] concerns Neisseria gonorrhoeae. The series is described as follows: Antimicrobial activity against penicillin-,ofloxacin- and tetracyclin-resistant Neisseria gonorrhoeae multiantigen sequence type 835 isolate 7 harboring penA gene by agar dilution method. In kind it is functional.

Consider `CN[C@@H]1[C@H](O)[C@H](NC)[C@H]2O[C@@]3(O)C(=O)C[C@@H](C)O[C@H]3O[C@@H]2[C@H]1O` [SPECTINOMYCIN], for which the minimal inhibitory concentration (MIC) with Neisseria gonorrhoeae [1] stood at 16 µg/mL (≈ 48.1 µM); in the series on Neisseria gonorrhoeae [2], 8 µg/mL (≈ 24.1 µM); against Neisseria gonorrhoeae [3], 8 µg/mL (≈ 24.1 µM); against Neisseria gonorrhoeae [4], 16 µg/mL (≈ 48.1 µM); with Neisseria gonorrhoeae [5], 8 µg/mL (≈ 24.1 µM); with Neisseria gonorrhoeae [6], 8 µg/mL (≈ 24.1 µM). For the same compound, the MIC with Neisseria gonorrhoeae [7], against Neisseria gonorrhoeae [8], with Neisseria gonorrhoeae [9], in the series on Neisseria gonorrhoeae [10] and in the series on Neisseria gonorrhoeae [11] was 8 µg/mL (≈ 24.1 µM) each time.
As to `CO/N=C(\C(=O)N[C@@H]1C(=O)N2C(C(=O)O)=C(CSc3nc(=O)c(O)nn3C)CS[C@H]12)c1csc(N)n1` [CEFTRIAXONE], the MIC against Neisseria gonorrhoeae [1] was determined as 0.064 µg/mL (≈ 0.115 µM); against Neisseria gonorrhoeae [2], 0.064 µg/mL (≈ 0.115 µM); with Neisseria gonorrhoeae [3] it was 0.064 µg/mL (≈ 0.115 µM); against Neisseria gonorrhoeae [4] it was 0.064 µg/mL (≈ 0.115 µM); against Neisseria gonorrhoeae [5], 0.064 µg/mL (≈ 0.115 µM); with Neisseria gonorrhoeae [6], 0.125 µg/mL (≈ 0.225 µM). The MIC against Neisseria gonorrhoeae [7], against Neisseria gonorrhoeae [8], in the series with Neisseria gonorrhoeae [9], in the series with Neisseria gonorrhoeae [10] and in the series on Neisseria gonorrhoeae [11] was 0.064 µg/mL (≈ 0.115 µM) in each case.
For `Nc1nc(/C(=C/CC(=O)O)C(=O)N[C@@H]2C(=O)N3C(C(=O)O)=CCS[C@H]23)cs1` [CEFTIBUTEN], the “diameter of the inhibition zone (DIZ)” value in the series on Neisseria gonorrhoeae [12] is 21 mm; with Neisseria gonorrhoeae [13] it was 22 mm; in the series on Neisseria gonorrhoeae [14] it was 20 mm; with Neisseria gonorrhoeae [18] it was 22 mm; with Neisseria gonorrhoeae [22], 27 mm; with Neisseria gonorrhoeae [23], 26 mm. Also, the “diameter of the inhibition zone (DIZ)” value is given as “>=30 mm” in the series with Neisseria gonorrhoeae [26]; 23 mm in the series with Neisseria gonorrhoeae [27]; 25 mm in the series with Neisseria gonorrhoeae [28]; 19 mm with Neisseria gonorrhoeae [31]; 24 mm with Neisseria gonorrhoeae [33]; 25 mm in the series with Neisseria gonorrhoeae [37]. This compound also displayed a Cmax in [15] of 15000 ng/mL. In addition, the MIC with Neisseria gonorrhoeae [16], against Neisseria gonorrhoeae [17], in the series on Neisseria gonorrhoeae [19], in the series on Neisseria gonorrhoeae [20], in the series on Neisseria gonorrhoeae [24] and with Neisseria gonorrhoeae [25] was 8 µg/mL (≈ 19.5 µM) in each case. For the same compound, the minimal inhibitory concentration (MIC) against Neisseria gonorrhoeae [29] was at most 1 µg/mL; with Neisseria gonorrhoeae [30] it was 8 µg/mL (≈ 19.5 µM); against Neisseria gonorrhoeae [32] it was 8 µg/mL (≈ 19.5 µM); in the series with Neisseria gonorrhoeae [34], 8 µg/mL (≈ 19.5 µM); in the series on Neisseria gonorrhoeae [36], 8 µg/mL (≈ 19.5 µM); in the series on Neisseria gonorrhoeae [38], 8 µg/mL (≈ 19.5 µM). Further, in [21], the half-life is 2.4 h. Moreover, in the series with Serum, the Activity stood at 65%. This compound also had a bioavailability in series [35] of 80%.
Take `C=CC1=C(C(=O)O)N2C(=O)[C@@H](NC(=O)/C(=N\OCC(=O)O)c3csc(N)n3)[C@H]2SC1` [CEFIXIME]: the minimal inhibitory concentration (MIC) amounted to 0.25 µg/mL (≈ 0.551 µM) with Neisseria gonorrhoeae [1]; 0.125 µg/mL (≈ 0.276 µM) with Neisseria gonorrhoeae [2]; 0.25 µg/mL (≈ 0.551 µM) in the series on Neisseria gonorrhoeae [3]; 0.25 µg/mL (≈ 0.551 µM) against Neisseria gonorrhoeae [4]; 0.125 µg/mL (≈ 0.276 µM) in the series with Neisseria gonorrhoeae [5]; 0.25 µg/mL (≈ 0.551 µM) with Neisseria gonorrhoeae [6]. In addition, the minimal inhibitory concentration (MIC) against Neisseria gonorrhoeae [7], with Neisseria gonorrhoeae [8], against Neisseria gonorrhoeae [9], against Neisseria gonorrhoeae [10] and with Neisseria gonorrhoeae [11] was 0.25 µg/mL (≈ 0.551 µM) in each case. The compound further had a maximum concentration (Cmax) in series [15] of 3000 ng/mL. In [21], this compound gave a half-life of 3.1 h. Besides, in the series on Serum, the Activity turned out to be 65%. This compound also gave a bioavailability in series [35] of 50%.
